Measured values taken from patent US5866346A (priority 1997, dated 1999).
Where two headings read alike, the source gives them in different places.

How the values were obtained:
[1] = molecular target: T1, XOR1 (rat opioid receptor-like novel receptor) (Rattus norvegicus, UniProt P35370); assay: Inhibition of forskolin-stimulated cyclic AMP increase in cells transiently transfected with XOR1; assay type: cell-based; settings: 5 μM ligand, 10 μM forskolin
T1 construct: expressed in transfected cells; host or cells: CHO-K1 and HEK-293 cells, transient calcium phosphate transfection
T1 sequence (P35370 whole entry): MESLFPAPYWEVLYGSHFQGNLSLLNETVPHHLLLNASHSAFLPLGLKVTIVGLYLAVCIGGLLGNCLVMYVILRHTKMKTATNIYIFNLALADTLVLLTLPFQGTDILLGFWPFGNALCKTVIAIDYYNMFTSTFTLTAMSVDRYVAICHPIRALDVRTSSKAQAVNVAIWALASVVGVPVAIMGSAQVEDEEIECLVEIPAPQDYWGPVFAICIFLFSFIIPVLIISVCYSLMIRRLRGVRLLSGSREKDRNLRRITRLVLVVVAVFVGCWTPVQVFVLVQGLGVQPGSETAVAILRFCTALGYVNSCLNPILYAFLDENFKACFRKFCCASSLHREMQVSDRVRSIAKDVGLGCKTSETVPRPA
Description: FIGS. 4A and 4B. Inhibition of forskolin-stimulated cyclic AMP increase by dyn A-(1-13). CHO-K1 or HEK-293 cells transiently transfected with the XOR1 clone were treated with 10 μM forskolin with or without 5 μM dyn A-(1-13). The control cells were transfected with the plasmid vector and underwent the same treatment. Intracellular cyclic AMP content was determined using a radioimmunoassay kit (DuPont/NEN). Data are shown as mean ± S.E. (n=2). * indicates a significant-difference from the forskolin-only treated cells (Student's t-test, p<0.01).
Cell transfection and cyclic AMP assay--The CHO-K1 and HEK-293 cells were transiently transfected with either XOR1 (rat opioid receptor-like novel receptor) cDNA in pRc/CMV (Invitrogen) or vector only (as control) by calcium phosphate method as described by Chen et al., Mol. Cell Biol. 7:2745-2752 (1987). Three days after transfection, cells were harvested by trypsin treatment, washed and resuspended in serum-free medium. Cells were treated with ligands in the presence of 10 μM forskolin and 1 mM 3-iosbutyl-1-methylxanthine at 37° C. for 20 min. The reaction was terminated by adding 1/3 volume of 0.25M HCl. The mixture was boiled for 5 min and centrifuged at 14,000 g for 10 min. […] The cAMP in cells was determined by the nonacetylated method using the radioimmunoassay kit (DuPont/NEN) according to the manufacturer's instructions.

[2] = molecular target: kappa opioid receptor (KOR) (Rattus norvegicus, UniProt P34975); settings: cited from earlier work
kappa opioid receptor (KOR) (Rattus norvegicus, UniProt P34975), sequence (P34975 whole entry): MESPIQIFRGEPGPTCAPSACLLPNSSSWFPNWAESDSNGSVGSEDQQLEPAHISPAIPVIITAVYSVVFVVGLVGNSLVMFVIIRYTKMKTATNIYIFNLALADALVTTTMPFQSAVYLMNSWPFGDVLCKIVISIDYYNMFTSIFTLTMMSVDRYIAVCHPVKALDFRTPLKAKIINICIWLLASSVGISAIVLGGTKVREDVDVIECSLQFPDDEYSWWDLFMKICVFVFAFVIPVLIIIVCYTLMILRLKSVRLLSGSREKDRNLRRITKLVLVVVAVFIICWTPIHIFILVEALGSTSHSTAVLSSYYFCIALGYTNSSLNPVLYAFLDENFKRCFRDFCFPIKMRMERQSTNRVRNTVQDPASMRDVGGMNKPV

[3] = molecular target: kappa opioid receptor (KOR) (Cavia porcellus, UniProt P41144); settings: read-out: KOR (Ki) Guinea pig (36); cited from earlier work
kappa opioid receptor (KOR) (Cavia porcellus, UniProt P41144), sequence (P41144 whole entry): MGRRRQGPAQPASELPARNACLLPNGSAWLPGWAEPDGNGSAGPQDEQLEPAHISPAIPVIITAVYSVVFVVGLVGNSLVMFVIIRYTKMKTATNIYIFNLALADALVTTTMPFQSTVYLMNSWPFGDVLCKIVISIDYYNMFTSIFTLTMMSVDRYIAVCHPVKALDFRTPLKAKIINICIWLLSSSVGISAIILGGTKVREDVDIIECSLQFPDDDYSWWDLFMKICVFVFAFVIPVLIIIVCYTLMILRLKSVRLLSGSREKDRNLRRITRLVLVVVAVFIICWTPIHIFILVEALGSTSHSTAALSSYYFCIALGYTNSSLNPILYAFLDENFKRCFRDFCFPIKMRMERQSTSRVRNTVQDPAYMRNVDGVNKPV

| Compound | inhibition of forskolin-stimulated cAMP increase ([1]; CHO-K1 cells) [%] | inhibition of forskolin-stimulated cAMP increase ([1]; HEK-293 cells) [%] | Ki ([2]; read-out: KOR (Ki) Rat (34)) [nM] | Ki [3] [nM] | Ki ([2]; read-out: KOR (Ki) Rat (27)) [nM] | Ki ([2]; read-out: KOR (Ki) Rat (33)) [nM] |
| --- | --- | --- | --- | --- | --- | --- |
| CC[C@H](C)[C@H](NC(=O)[C@H](CCCNC(=N)N)NC(=O)[C@H](CCCNC(=N)N)NC(=O)[C@H](CC(C)C)NC(=O)[C@H](Cc1ccccc1)NC(=O)CNC(=O)CNC(=O)[C@@H](N)Cc1ccc(O)cc1)C(=O)N[C@@H](CCCNC(=N)N)C(=O)N1CCC[C@H]1C(=O)N[C@@H](CCCCN)C(=O)N[C@@H](CC(C)C)C(=O)N[C@@H](CCCCN)C(=O)O [dyn A-(1-13), dynorphin A (1-13)] | 51 | 35 | 0.12 | 0.71 | – | – |
| CC[C@H](C)[C@H](NC(=O)[C@H](CCCNC(=N)N)NC(=O)[C@H](CCCNC(=N)N)NC(=O)[C@H](CC(C)C)NC(=O)[C@H](Cc1ccccc1)NC(=O)CNC(=O)CNC(=O)[C@@H](N)Cc1ccc(O)cc1)C(=O)N[C@@H](CCCNC(=N)N)C(=O)N1CCC[C@H]1C(=O)N[C@@H](CCCCN)C(=O)N[C@@H](CC(C)C)C(=O)N[C@@H](CCCCN)C(=O)N[C@@H](Cc1c[nH]c2ccccc12)C(=O)N[C@@H](CC(=O)O)C(=O)N[C@@H](CC(N)=O)C(=O)N[C@@H](CCC(N)=O)C(=O)O [dyn A, dynorphin A] | – | – | 0.11 | 0.58 | 0.15 | 0.05 |
